Experimental data reported in the supplement of paper PMC10307832.

Legend:
Assay in all cases: relative viability (nuclei count vs DMSO), 5 days (fraction); higher = more cells survive
EKVX = tested on: EKVX
Method in brief: (§1)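 Relative viability is defined as nuclei in treated wells over nuclei in vehicle wells. Duplicate plates were run and medians reported. Lung cancer cell lines in 1536-well plates were dosed by pin tool one day after seeding, with one drug or with a fixed anchor-drug dose plus five library-drug doses (not always all listed) in √10 steps, and nuclei were counted after 5 days.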

EMC-BAC-2 = tested on: EMC-BAC-2
Method in brief: as §1

EPLC-272H = tested on: EPLC-272H
Method in brief: as §1

HCC-78 = tested on: HCC-78
Method in brief: as §1

HCC-827 = tested on: HCC-827
Method in brief: as §1

LCLC-103H = tested on: LCLC-103H
Method in brief: as §1

LK-2 = tested on: LK-2
Method in brief: as §1

LU99A = tested on: LU99A
Method in brief: as §1

NCI-H1563 = tested on: NCI-H1563
Method in brief: as §1

NCI-H1666 = tested on: NCI-H1666
Method in brief: as §1

NCI-H1975 = tested on: NCI-H1975
Method in brief: as §1

NCI-H2126 = tested on: NCI-H2126
Method in brief: as §1

NCI-H23 = tested on: NCI-H23
Method in brief: as §1

NCI-H2405 = tested on: NCI-H2405
Method in brief: as §1

NCI-H322M = tested on: NCI-H322M
Method in brief: as §1

PC-14 = tested on: PC-14
Method in brief: as §1

RERF-LC-KJ = tested on: RERF-LC-KJ
Method in brief: as §1

SK-LU-1 = tested on: SK-LU-1
Method in brief: as §1

SW 1573 = tested on: SW 1573
Method in brief: as §1

CC(=O)O[C@@]12CO[C@@H]1C[C@H](O)[C@@]1(C)C(=O)[C@H](O)C3=C(C)[C@@H](OC(=O)[C@H](O)[C@@H](NC(=O)OC(C)(C)C)c4ccccc4)C[C@@](O)([C@@H](OC(=O)c4ccccc4)[C@H]21)C3(C)C [Docetaxel] + Cc1nc(NC(=O)N2CCC[C@H]2C(N)=O)sc1-c1ccnc(C(C)(C)C(F)(F)F)c1 [Alpelisib] (partner 2 µM)
relative viability (EKVX; first compound 0.0002 µM): 0.884
relative viability (EKVX; first compound 0.000632 µM): 0.853
relative viability (EKVX; first compound 0.002 µM): 0.435
relative viability (EKVX; first compound 0.006325 µM): 0.25
relative viability (EKVX; first compound 0.02 µM): 0.146
relative viability (EMC-BAC-2; first compound 0.0002 µM): 0.694
relative viability (EMC-BAC-2; first compound 0.000632 µM): 0.626
relative viability (EMC-BAC-2; first compound 0.002 µM): 0.385
relative viability (EMC-BAC-2; first compound 0.006325 µM): 0.246
relative viability (EMC-BAC-2; first compound 0.02 µM): 0.154
relative viability (EPLC-272H; first compound 0.0002 µM): 0.928
relative viability (EPLC-272H; first compound 0.000632 µM): 0.741
relative viability (EPLC-272H; first compound 0.002 µM): 0.43
relative viability (EPLC-272H; first compound 0.006325 µM): 0.147
relative viability (EPLC-272H; first compound 0.02 µM): 0.106
relative viability (HCC-78; first compound 0.0002 µM): 0.338
relative viability (HCC-78; first compound 0.000632 µM): 0.279
relative viability (HCC-78; first compound 0.002 µM): 0.255
relative viability (HCC-78; first compound 0.006325 µM): 0.24
relative viability (HCC-78; first compound 0.02 µM): 0.175
relative viability (HCC-827; first compound 0.0002 µM): 0.981
relative viability (HCC-827; first compound 0.000632 µM): 0.992
relative viability (HCC-827; first compound 0.002 µM): 0.706
relative viability (HCC-827; first compound 0.006325 µM): 0.288
relative viability (HCC-827; first compound 0.02 µM): 0.282
relative viability (LCLC-103H; first compound 0.0002 µM): 0.966
relative viability (LCLC-103H; first compound 0.000632 µM): 0.984
relative viability (LCLC-103H; first compound 0.002 µM): 0.963
relative viability (LCLC-103H; first compound 0.006325 µM): 0.563
relative viability (LCLC-103H; first compound 0.02 µM): 0.452
relative viability (LK-2; first compound 0.0002 µM): 1.03
relative viability (LK-2; first compound 0.000632 µM): 0.685
relative viability (LK-2; first compound 0.002 µM): 0.262
relative viability (LK-2; first compound 0.006325 µM): 0.244
relative viability (LK-2; first compound 0.02 µM): 0.231
relative viability (LU99A; first compound 0.0002 µM): 0.499
relative viability (LU99A; first compound 0.000632 µM): 0.342
relative viability (LU99A; first compound 0.002 µM): 0.299
relative viability (LU99A; first compound 0.006325 µM): 0.184
relative viability (LU99A; first compound 0.02 µM): 0.139
relative viability (NCI-H1563; first compound 0.0002 µM): 0.879
relative viability (NCI-H1563; first compound 0.000632 µM): 0.926
relative viability (NCI-H1563; first compound 0.002 µM): 0.809
relative viability (NCI-H1563; first compound 0.006325 µM): 0.807
relative viability (NCI-H1563; first compound 0.02 µM): 0.55
relative viability (NCI-H1666; first compound 0.0002 µM): 0.803
relative viability (NCI-H1666; first compound 0.000632 µM): 0.406
relative viability (NCI-H1666; first compound 0.002 µM): 0.352
relative viability (NCI-H1666; first compound 0.006325 µM): 0.276
relative viability (NCI-H1666; first compound 0.02 µM): 0.168
relative viability (NCI-H1975; first compound 0.0002 µM): 0.617
relative viability (NCI-H1975; first compound 0.000632 µM): 0.437
relative viability (NCI-H1975; first compound 0.006325 µM): 0.156
relative viability (NCI-H1975; first compound 0.02 µM): 0.122
relative viability (NCI-H2126; first compound 0.0002 µM): 0.781
relative viability (NCI-H2126; first compound 0.000632 µM): 0.753
relative viability (NCI-H2126; first compound 0.002 µM): 0.541
relative viability (NCI-H2126; first compound 0.006325 µM): 0.321
relative viability (NCI-H2126; first compound 0.02 µM): 0.231
relative viability (NCI-H23; first compound 0.0002 µM): 0.612
relative viability (NCI-H23; first compound 0.000632 µM): 0.512
relative viability (NCI-H23; first compound 0.002 µM): 0.406
relative viability (NCI-H23; first compound 0.006325 µM): 0.209
relative viability (NCI-H23; first compound 0.02 µM): 0.0958
relative viability (NCI-H2405; first compound 0.0002 µM): 0.894
relative viability (NCI-H2405; first compound 0.000632 µM): 0.677
relative viability (NCI-H2405; first compound 0.002 µM): 0.467
relative viability (NCI-H2405; first compound 0.006325 µM): 0.448
relative viability (NCI-H2405; first compound 0.02 µM): 0.288
relative viability (NCI-H322M; first compound 0.0002 µM): 0.908
relative viability (NCI-H322M; first compound 0.000632 µM): 0.869
relative viability (NCI-H322M; first compound 0.002 µM): 0.618
relative viability (NCI-H322M; first compound 0.006325 µM): 0.533
relative viability (NCI-H322M; first compound 0.02 µM): 0.181
relative viability (PC-14; first compound 0.0002 µM): 0.895
relative viability (PC-14; first compound 0.000632 µM): 0.998
relative viability (PC-14; first compound 0.002 µM): 0.354
relative viability (PC-14; first compound 0.006325 µM): 0.11
relative viability (PC-14; first compound 0.02 µM): 0.0576
relative viability (RERF-LC-KJ; first compound 0.0002 µM): 0.801
relative viability (RERF-LC-KJ; first compound 0.000632 µM): 0.712
relative viability (RERF-LC-KJ; first compound 0.002 µM): 0.38
relative viability (RERF-LC-KJ; first compound 0.006325 µM): 0.235
relative viability (RERF-LC-KJ; first compound 0.02 µM): 0.172
relative viability (SK-LU-1; first compound 0.0002 µM): 0.766
relative viability (SK-LU-1; first compound 0.000632 µM): 0.467
relative viability (SK-LU-1; first compound 0.002 µM): 0.495
relative viability (SK-LU-1; first compound 0.006325 µM): 0.26
relative viability (SK-LU-1; first compound 0.02 µM): 0.228
relative viability (SW 1573; first compound 0.0002 µM): 0.739
relative viability (SW 1573; first compound 0.000632 µM): 0.604
relative viability (SW 1573; first compound 0.002 µM): 0.29
relative viability (SW 1573; first compound 0.006325 µM): 0.233
relative viability (SW 1573; first compound 0.02 µM): 0.185
